This experiment is described as follows: Sensory comparison of flavored formulation examples with the flavor not according to the invention. The class given is in vivo.

For `C/C=C(/C=O)c1ccccc1` [2-phenyl-but-2-enal, 2-Phenyl-but-2-enal], the “Sensory effect compared to the flavor not according to the invention” value runs as follows: (standard chewing gum, 2% peppermint type flavor (Example 2.11)) “intensified feeling of freshness together with an increased menthol taste and perception of coolness”; (sugar-free chewing gum, 1% Cinnamon type flavor Cool (Example 2.10), especially in the initial phase of consumption) “intensified feeling of freshness together with an increased menthol taste and perception of coolness”; (toothpaste (Silica opaque), 1% peppermint type flavor Cool (Example 2.14)) “fresher mouthfeel together with an increased menthol taste and perception of coolness”; (toothpaste (phosphate base), 1% spearmint type flavor (Example 2.12), especially at the start of brushing) “definite feeling of freshness together with an increased menthol taste and perception of coolness”; (toothpaste (transparent gel), 1% cinnamon type flavor (Example 2.13)) “clearer freshness profile together with an increased menthol taste and perception of coolness”.

These data come from US9743685B2, “Mixtures having improved cooling effect” (SYMRISE AG, priority 2012, dated 2017).
